According to ChEMBL document CHEMBL1153247, “Synthesis and biological evaluation of substituted 2-phenyl-2H-indazole-7-carboxamides as potent poly(ADP-ribose) polymerase (PARP) inhibitors” (Bioorg Med Chem Lett, 2010):
Where “and” joins values, the source holds several entries; their conditions need not be identical. Equal entries are not always repeated.

Assays:
[1] = target: Poly [ADP-ribose] polymerase 1 (Homo sapiens, UniProt P09874); assay: Inhibition of human PARP1 after 3 hrs using [3H]NAD+ by scintillation proximity assay
[2] = tested on: HeLa; assay: Cytotoxicity against human BRCA1 deficient HeLa cells after 7 days by fluorimetric analysis; format: functional, cell-based; settings: 168 h
[3] = tested on: HeLa; assay: Cytotoxicity against human HeLa cells expressing BRCA1 after 7 days by fluorimetric analysis; format: functional; settings: 168 h
[4] = (§1) Oral bioavailability in rat; format: ADME, organism-based; settings: in vivo
[5] = Clearance in rat; format: ADME, organism-based; settings: in vivo
[6] = Intrinsic clearance in rat microsomes; format: ADME, Microsome
[7] = tested on: Rattus norvegicus; assay: as §1; format: ADME, organism-based; settings: in vivo

Poly [ADP-ribose] polymerase 1, sequence (P09874 whole entry): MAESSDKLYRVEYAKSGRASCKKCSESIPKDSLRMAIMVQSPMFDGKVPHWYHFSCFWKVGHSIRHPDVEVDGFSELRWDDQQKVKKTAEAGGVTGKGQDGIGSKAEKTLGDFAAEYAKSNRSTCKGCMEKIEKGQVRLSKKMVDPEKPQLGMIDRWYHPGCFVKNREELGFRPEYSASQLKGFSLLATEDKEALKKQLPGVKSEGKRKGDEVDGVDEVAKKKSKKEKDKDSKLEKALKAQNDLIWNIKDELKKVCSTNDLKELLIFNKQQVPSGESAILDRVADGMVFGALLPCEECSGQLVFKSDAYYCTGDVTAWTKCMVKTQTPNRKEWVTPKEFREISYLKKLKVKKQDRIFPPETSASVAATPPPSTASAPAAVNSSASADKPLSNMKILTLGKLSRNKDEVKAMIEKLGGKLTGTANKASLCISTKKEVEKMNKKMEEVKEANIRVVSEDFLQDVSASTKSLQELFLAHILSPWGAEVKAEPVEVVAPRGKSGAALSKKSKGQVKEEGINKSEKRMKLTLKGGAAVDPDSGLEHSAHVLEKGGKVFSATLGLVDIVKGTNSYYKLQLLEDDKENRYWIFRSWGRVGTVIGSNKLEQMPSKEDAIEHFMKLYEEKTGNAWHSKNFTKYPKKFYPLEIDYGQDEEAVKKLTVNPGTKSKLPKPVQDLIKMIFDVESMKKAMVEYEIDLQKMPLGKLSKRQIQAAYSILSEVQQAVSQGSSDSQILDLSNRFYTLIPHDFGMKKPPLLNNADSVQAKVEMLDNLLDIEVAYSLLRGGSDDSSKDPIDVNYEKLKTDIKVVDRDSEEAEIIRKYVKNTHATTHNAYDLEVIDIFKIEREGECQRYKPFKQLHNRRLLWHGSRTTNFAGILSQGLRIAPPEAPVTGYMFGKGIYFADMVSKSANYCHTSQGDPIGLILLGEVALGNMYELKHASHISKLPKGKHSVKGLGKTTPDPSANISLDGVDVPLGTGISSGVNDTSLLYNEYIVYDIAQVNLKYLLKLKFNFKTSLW

| SMILES | IC50 [1] [nM] | IC50 [2] [nM] | CC50 [3] [nM] | bioavailability [4] [%] | clearance [5] [mL/min/kg] | microsomal CLint [6] [µL/min/mg] | F [7] |
| --- | --- | --- | --- | --- | --- | --- | --- |
| NC(=O)c1cc(F)cc2cn(-c3ccc(NC(=O)C4CNC4)c(F)c3)nc12 | 4 | 42 | 650 |  |  |  |  |
| CN1CCC(C(=O)Nc2ccc(-n3cc4cc(F)cc(C(N)=O)c4n3)cc2)CC1 | 16 | 520 | 2700 | 66 | 26 |  |  |
| CN(C)CCNC(=O)c1ccc(-n2cc3cccc(C(N)=O)c3n2)cc1 | 10 | 5400 | 8900 |  |  |  |  |
| NC(=O)c1cccc2cn(-c3ccc(C(=O)NCCN4CCCC4)cc3)nc12 | 20 | 3300 | 8000 |  |  |  |  |
| NC(=O)c1cccc2cn(-c3ccc(NC(=O)CN4CCCCC4)cc3)nc12 | 20 | 1400 | 3000 |  |  |  |  |
| NC(=O)c1cccc2cn(-c3ccc(NC(=O)CN4CCOCC4)cc3)nc12 | 30 | 5000 | > 6000 |  |  |  |  |
| CN1CCCC(C(=O)NCc2ccc(-n3cc4cccc(C(N)=O)c4n3)cc2)C1 (stereo not drawn) | 22 | 2300 | 9400 |  |  |  |  |
| NC(=O)c1cccc2cn(-c3ccc(CNC(=O)C4CNC4)cc3)nc12 | 65 | > 20000 | > 20000 |  |  |  |  |
| CNCc1ccc(-n2cc3cccc(C(N)=O)c3n2)cc1C(F)(F)F | 5 | 6200 | > 20000 |  |  |  |  |
| CNCc1ccc(-n2cc3cccc(C(N)=O)c3n2)cc1OC | 4 | 1900 | 11000 |  |  |  |  |
| CNCc1ccc(-n2cc3c(F)ccc(C(N)=O)c3n2)cc1 | 8 | 2500 | 6300 |  |  |  |  |
| CNCc1ccc(-n2cc3ccc(F)c(C(N)=O)c3n2)cc1 | 20 | 1600 | > 10000 |  |  |  |  |
| CNCc1ccc(-n2cc3c(F)c(F)cc(C(N)=O)c3n2)cc1 | 25 | 2600 | > 5000 |  |  |  |  |
| NC(=O)c1cccc2cn(-c3ccc(C(=O)NCCN4CCOCC4)cc3)nc12 | 54 | 7600 | > 20000 |  |  |  |  |
| NC(=O)c1cccc2cn(-c3ccccc3)nc12 | 25 |  |  |  |  |  |  |
| CN(Cc1ccc(-n2cc3cccc(C(N)=O)c3n2)cc1)C(=O)C1CNC1 | 18 | > 20000 | 20000 |  |  |  |  |
| CN1CCC(C(=O)Nc2ccc(-n3cc4cccc(C(N)=O)c4n3)cc2)CC1 | 10 | 3600 | 8400 |  |  |  |  |
| CNCc1ccc(-n2cc3cc(F)cc(C(N)=O)c3n2)c(F)c1 | 6 | 230 | 4200 |  |  |  |  |
| CN1CCC[C@@H](C(=O)Nc2ccc(-n3cc4cc(F)cc(C(N)=O)c4n3)cc2F)C1 | 12 | 440 | 1800 |  |  |  |  |
| NC(=O)c1cc(F)cc2cn(-c3ccc(NC(=O)C4CNC4)cc3)nc12 | 5 | 310 | 5900 | 3 | 13 |  |  |
| NC(=O)c1cccc2cn(-c3ccc(C(=O)NCCN4CCCCC4)cc3)nc12 | 38 | 3000 | 6400 |  |  |  |  |
| NC(=O)c1cccc2cn(-c3ccc(C(=O)NCc4ccncc4)cc3)nc12 | 10 | 3900 | 8700 |  |  |  |  |
| CN1CC(C(=O)Nc2ccc(-n3cc4cc(F)cc(C(N)=O)c4n3)cc2)C1 | 6 | 720 | 2600 |  |  |  |  |

| SMILES | IC50 [1] [nM] | IC50 [2] [nM] | CC50 [3] [nM] | bioavailability [4] [%] | clearance [5] [mL/min/kg] | microsomal CLint [6] [µL/min/mg] | F [7] |
| --- | --- | --- | --- | --- | --- | --- | --- |
| NC(=O)c1cccc2cn(-c3ccc(C(=O)Nc4ccncc4)cc3)nc12 | 30 | 7300 | > 50000 |  |  |  |  |
| NC(=O)c1cccc2cn(-c3ccc(C(=O)N4CCCNCC4)cc3)nc12 | 22 | > 10000 | > 20000 |  |  |  |  |
| NC(=O)c1cccc2cn(-c3cccc(C(=O)N4CCCNCC4)c3)nc12 | 40 | > 20000 | > 20000 |  |  |  |  |
| CN1CCC[C@H]1C(=O)Nc1ccc(-n2cc3cccc(C(N)=O)c3n2)cc1 | 17 | 1200 | 5000 |  |  |  |  |
| CNCc1ccc(-n2nc3c(C(N)=O)cccc3c2Cl)cc1 | 20 | 5900 | 11000 |  |  |  |  |
| CNCc1ccc(-n2cc3c(Cl)ccc(C(N)=O)c3n2)cc1 | 180 | 5200 | 4300 |  |  |  |  |
| CNCc1ccc(-n2cc3c(O)ccc(C(N)=O)c3n2)cc1 | 540 | > 20000 | > 20000 |  |  |  |  |
| CNCc1ccc(-n2cc3cccc(C(N)=O)c3n2)cc1F | 4 | 200 | 3800 |  |  |  |  |
| CNCc1ccc(-n2cc3cc(Cl)cc(C(N)=O)c3n2)cc1 | 5 | 260 | 1000 |  |  |  |  |
| CNCc1ccc(-n2cc3cccc(C(N)=O)c3n2)cc1O | 12 | 3400 | > 10000 |  |  |  |  |
| CN1CCC[C@@H](C(=O)Nc2ccc(-n3cc4cccc(C(N)=O)c4n3)cc2)C1 | 30 | 820 | 4300 | 47 | 23 |  |  |
| NC(=O)c1cccc2cn(-c3ccc(NC(=O)CN4CCCC4)cc3)nc12 | 10 | 930 | 2800 |  |  |  |  |
| CN1CCCC(C(=O)N(C)Cc2ccc(-n3cc4cccc(C(N)=O)c4n3)cc2)C1 (stereo not drawn) | 25 | 8600 | > 20000 |  |  |  |  |
| CN1CC(C(=O)Nc2ccc(-n3cc4cc(F)cc(C(N)=O)c4n3)cc2F)C1 | 6 | 480 | 1600 |  |  |  |  |
| CN1CCC[C@H](C(=O)Nc2ccc(-n3cc4cccc(C(N)=O)c4n3)cc2)C1 | 20 | 1300 | 6000 |  | 42 |  |  |
| CN(C)CC(=O)Nc1ccc(-n2cc3cccc(C(N)=O)c3n2)cc1 | 15 | 1500 | 5000 |  |  |  |  |
| CNCc1ccc(-n2cc3cc(F)cc(C(N)=O)c3n2)cc1F | 2 | 26 | 1500 |  |  |  |  |
| CNCc1ccc(-n2cc3cccc(C(N)=O)c3n2)cc1 | 5 | 500 | 5600 |  |  |  |  |
| CNCc1ccc(-n2cc3cc(F)cc(C(N)=O)c3n2)cc1 | 1.4 | 94 | 1800 |  |  |  |  |
| NC(=O)c1cccc2cn(-c3ccc(NC(=O)C4CNC4)cc3)nc12 | 10 | 920 | > 20000 |  | 13 | 1 | 1% and 3% |
| CNCc1ccc(-n2cc3c(OC)ccc(C(N)=O)c3n2)cc1 | > 1000 | 3400 | 5500 |  |  |  |  |
| CN1CCCCC1C(=O)Nc1ccc(-n2cc3cccc(C(N)=O)c3n2)cc1 (racemic) | 46 | 2600 | 6700 |  |  |  |  |
